According to patent US20150366962A1 (priority 2014, published 2015):

Experiments:
[1] = test system: A/Brisbane/59/2007 (H1N1), A/Uruguay/716/2007 (H3N2), B/Brisbane/60/2008; assay: Fluzone immunization: serum IgG to the vaccine's viral components; type: in vivo, BALB/c mice; conditions: 50 ng/HA 2009-2010 Fluzone, 3 weeks
OVA = OVA immunization: anti-OVA IgG1 and IgG2c by ELISA; type: in vivo, C57BL/6 mice; conditions: i.m. OVA 20 μg plus adjuvant, sera day 35
PR/8 virus / PR/8 HA = assay: Long-term memory response after rPR/8 HA: HAI titers, B cell and IFN-γ ELISpot; type: in vivo, BALB/c mice
Experimental: (A) BALB/c mice were i.m. immunized with rPR/8 HA (5 μg/animal) on day 0 with the indicated adjuvant or vehicle, and sera were collected every 3 weeks (red drops). (B) Levels of antigen-specific total IgG were measured by ELISA. (C) The serum HAI titer to PR/8 virus was assayed at 6 weeks after immunization, with a detection limit of 1:40 serum dilution; nd, not detectable. (D and E) Eighteen weeks after immunization, mice (n=5/group) were administered 10 mLD50 of PR/8 virus and monitored for morbidity, as measured by body weight loss (D), and mortality (E) induced by the viral challenge. […]
AddaVax was used at a 1:1 ratio with antigen in PBS. […] IFN-γ spot-forming cells were detected with the IFN-γ ELISpot ALP kit (3321-2A; Mabtech, Cincinnati, Ohio). Antigen specific B cells from splenocytes were quantified 5 days after reexposure to antigen (5 μg of rPR/8HAin PBS only administered i.m.) by plating them on ELISpot plates coated with rPR/8 protein (Strep tag purified) for 20 h, and detection of secreted antibody was performed with an anti-mouse IgG secondary antibody conjugated to horseradish peroxidase (HRP).
Anti-OVA antibodies of the IgG subclasses IgG1 and IgG2c were measured by ELISA. Each ELISA plate contained a titration of a previously quantitated serum to generate a standard curve. […] Total IgG, IgG1, and IgG2a were detected.

[2] = test system: human umbilical vein cells (HUVEC); assay: Chemokine induction in HUVEC; type: cell-based
Experimental: (§1) TLR7 expression in humans is limited to plasmacytoid DC and B cells, and different from the expression in mice. Conversely, TLR4 is abundantly expressed in different cell types in humans and mice. Thus, experiments were performed to determine whether 1Z105 and 1V270 could stimulate human umbilical vein cells (HUVEC) and myeloid dendritic cells.

myeloid dendritic cells = assay: Chemokine induction in human myeloid dendritic cells; type: cell-based; conditions: myeloid DC
Experimental: as §1

recombinant PR8 HA = assay: T cell response to head and stalk segments of PR8 HA (IFNγ ELISpot or ELISA); type: in vivo, Balb/c mice; conditions: two immunizations two weeks apart, 6 weeks after the first
rCal/09 HA = assay: Cross-reactive serum IgG to Cal/09 HA after rPR/8 HA immunization; type: in vivo, BALB/c mice; conditions: for heteroreactive serum IgG titers versus unadjuvanted protein alone: 5 μg rPR/8 HA, rCal/09 HA substrate, 3 weeks
rPR/8 HA = rPR/8 HA single immunization: serum antibody ELISA; type: in vivo, BALB/c mice; conditions: for seroconversion to rPR/8 HA (total IgG, IgG1, IgG2a): 5 μg rPR/8 HA i.m. day 0, sera days 7, 14, 21; for total serum IgG reactive to antigen, long term / IgG2a/IgG1 ratio (Th1-Th2 immune balance): 5 μg rPR/8 HA; for total serum IgG reactive to antigen, long term: bled every 3 weeks up to 18 weeks; for IgG2a/IgG1 ratio (Th1-Th2 immune balance): single immunization
OT-II splenocytes = assay: Intracellular IFNγ in CD4 T cells of OT-II splenocytes; type: cell-based, mice; conditions: for intracellular IFNγ expressing CD4 T cells: alone, OVA323-339, 3 days
Experimental: To evaluate whether 1Z105 can enhance the proinflammatory cytokine induction by 1V270, BMDC (C57BL/6) were incubated with 1V270 (0.025, or 0.1 μM) in the presence or absence of 1Z105 (5 μM). […] Antigen presenting function was evaluated using splenocytes prepared from OVA MHC class II-restricted alpha beta T cell receptor (TCR) transgenic mice OT-II. Splenocytes were cultured with OVA peptide (OVA323-339) for 3 days with 1Z105, or 1V270 alone or in combination. The frequency of intracellular (IC) IFNγ expressing CD4 T cells was determined by flow cytometric assay. Treatment with 1V270 alone increased intracellular IFNγ (3.7 and 6.8% by 25 and 100 nM, respectively).

PBMC = assay: IL-8 release by human PBMC; type: cell-based
Excerpt: To confirm the activities of 1Z105/1V270 combined adjuvant in human cells, PBMC were stimulated with these agonists.

[3] = test system: rHA derived from A/California/04/2009 (pH1N1); assay: rHA (Cal/09) immunization: serum IgG ELISA; type: in vivo, BALB/c mice; conditions: 5 μg Cal/09 rHA, 3 weeks after immunization
[4] = test system: A/Puerto Rico/8/1934(H1N1); parameters: species or system BALB/c mice; conditions: mouse, in vivo

Compound	seroresponse to the three viral components of Fluzone (ELISA) [1]	serum anti-OVA IgG1 titers versus OVA alone (OVA)	induction of chemokines MCP-1 and IL-8 [2]	induction of chemokines MCP-1 and IL-8 (myeloid dendritic cells)	T cell response against the head segment (pool 1-2) of HA (recombinant PR8 HA)	heteroreactive serum IgG titers versus unadjuvanted protein alone (rCal/09 HA)	seroconversion to rPR/8 HA (total IgG, IgG1, IgG2a) (rPR/8 HA)	total serum IgG reactive to antigen, long term (rPR/8 HA)	IgG2a/IgG1 ratio (Th1-Th2 immune balance) (rPR/8 HA)	IL-8 release by PBMC (PBMC)	IgG seroresponse [3]	mortality [4]	survival after the lethal challenge [4] [%]	weight loss [4]	also measured
Cn1c2ccccc2c2nc(SCC(=O)NC3CCCCC3)n(-c3ccccc3)c(=O)c21 [Compound 1Z105]	enhanced the seroresponse to all three viral components	significantly higher	induced the chemokines MCP-1, and IL-8	induced the chemokines MCP-1, and IL-8	highly induced T cell response	significantly higher	induced rapid seroconversion	induced a robust and sustained IgG response	produced predominately IgG1 in a Th2-type response	minimal levels of IL-8	enhanced	provided protective efficacy	100	significantly reduced weight loss	fold increase in HAI titer induced by the boost (PR/8 virus / PR/8 HA; 5 days after reexposure versus preboost): significant only in the 1Z105 group; subtypes of cross-reactive antibodies (IgG2a/IgG1) (rCal/09 HA; antibodies cross-reactive to Cal/09 HA): produced predominately IgG1; difference in serum IgG endpoint titers among rHA doses (antigen sparing) (rPR/8 HA; 5, 1 or 0.2 μg rPR/8 HA, 3 weeks after immunization): no significant difference; frequency of IFNγ-producing cells (OT-II splenocytes; 1Z105 in combination with 1V270): additively increased; mortality compared to no-adjuvant control receiving 5 μg of rHA [4]: significantly minimized
CCCCCCCCC=CCCCCCCCC(=O)OCC(COP(=O)(O)OCCNC(=O)c1ccc(Cn2c(=O)[nH]c3c(N)nc(OCCOC)nc32)cc1)OC(=O)CCCCCCCC=CCCCCCCCC (stereo not drawn) [Compound 1V270]	enhanced the seroresponse to all three viral components	did not induce IgG1 comparably to 1Z105	minimal effects	minimal effects	highly induced T cell response	significantly higher	induced rapid seroconversion	induced a robust and sustained IgG response	induced both IgG1 and IgG2a in a more balanced Th1-Th2-type response	minimal levels of IL-8	enhanced	provided protective efficacy	100	significantly reduced weight loss	serum anti-OVA IgG2c titers versus OVA alone (OVA): significantly higher IgG2c titers; antigen-specific IFN-γ-producing T cells (ELISpot) (PR/8 virus / PR/8 HA; splenocytes 6 months after immunization, PR/8 HA peptide pool overnight): induced antigen-specific IFN-γ T cells that were long lived; stalk-specific (pool 3-4) T cell responses (recombinant PR8 HA): also induced stalk-specific (pool 3-4) T cell responses; intracellular IFNγ expressing CD4 T cells (OT-II splenocytes; 25 nM): 3.7%; intracellular IFNγ expressing CD4 T cells (OT-II splenocytes; 100 nM): 6.8%; weight loss compared to AddaVax [4]: restricted weight loss compared to AddaVax
